Measurements published in patent publication US7790474B1, “p53 modulators” (Schering Corporation, priority 2005, dated 2010).

Columns and labels:
[1] = tested on: DLD-1 human colon adenocarcinoma cells; test: In vivo anti-tumor study, staged model; parameters: species or system Nude mice; settings: dosing from day 10
Method: Staged Model. In this model the initiation of therapy was delayed until the tumors had reached a certain volume. Nude mice (5-6 week old females) were inoculated with 5×10^6 DLD-1 human colon adenocarcinoma cells on day 1, and then randomized on day 10. The dosing of these mice was started on day 10. Groups 1 to 5, having 10 mice in each group, were dosed orally every 12 hours with no treatment, vehicle,
[drawing 36] 50 mpk, respectively, for 26 days. All animals were carefully monitored at least daily and each tumor was measured twice a week. The tumor growth inhibition level observed is set forth below in Table 4.

[2] = tested on: DLD-1 human colon adenocarcinoma cells; test: In vivo anti-tumor study, unstaged model; parameters: species or system Nude mice; settings: dosing from day 4
Method: Unstaged Model. In this model, the therapy was started immediately after the tumor cells had been inoculated. Nude mice (5-6 week old females) were inoculated with 5×10^6 DLD-1 human colon adenocarcinoma cells on day 1, and randomized on day 3. The dosing of these mice was started on day 4. Groups 1 to 4, having 10 mice in each group, were dosed orally every 12 hours with vehicle,
[drawing 33] 50 mpk, respectively, for 31 days. All animals were carefully monitored at least daily and each tumor was measured twice a week. The tumor growth inhibition level observed is set forth below in Table 3.

[3] = tested on: GST-p53 DNA binding domain (aa 92-aa 312); test: Scintillation Proximity Assay (displacement of 3H-labeled p53 binder); settings: percentage of 3H-labeled ligand remaining bound, number in brackets = average of n
Method: [drawing 38] (^3H at C bearing the chlorophenyl groups and the piperazinyl group), a radiolabeled small molecule which binds to p53, and the GST-p53 DNA binding domain (aa 92-aa 312), a quantitative screening assay was used to determine if various molecules comprise p53 binding activity. The assay is based on Scintillation Proximity Assay (SPA) technology. The complex of GST-p53,
[drawing 39] and Glutathione-SPA beads (Amersham Biosciences) were incubated with mixing for 1 hour at room temperature in the presence of the compounds to be screened. The signal was read on a Microbeta.
The numerical values expressed refer to the percentage of labeled
[drawing 40] remaining bound to the mutant p53 protein after exposure to the indicated compound.

SMILES	SPA ASSAY % Residual T @ 2 ug/mL of drug (Average of) [3]	also measured
CN(C)CCCNc1nc(CN2CCN(C(c3ccc(Cl)cc3)c3ccc(Cl)cc3)CC2)nc2ccccc12 [drawing 37]	–	% inhibition (tumor growth), staged model ([1]; 10 mpk orally every 12 hours for 26 days): 10.15%; % inhibition (tumor growth), staged model ([1]; 30 mpk orally every 12 hours for 26 days): 14.73%; % inhibition (tumor growth), staged model ([1]; 50 mpk orally every 12 hours for 26 days): 44.31%
CN(C)CCCNc1nc(CN2CCN(C(c3ccc(Cl)cc3)c3ccc(Cl)cc3)CC2)nc2ccccc12 [drawing 34]	–	% inhibition (tumor growth), unstaged model ([2]; 10 mpk orally every 12 hours for 31 days): 48.30%; % inhibition (tumor growth), unstaged model ([2]; 30 mpk orally every 12 hours for 31 days): 43.23%; % inhibition (tumor growth), unstaged model ([2]; 50 mpk orally every 12 hours for 31 days): 78.96%
Clc1ccc(C(c2ccc(Cl)cc2)N2CCN(Cc3nc(N4CCN(c5ncccn5)CC4)c4ccccc4n3)CC2)cc1 [Formula 47]	85.0%	–
CN(C)CCCNc1nc(CN(C)Cc2ccccc2OCC(=O)O)nc2ccccc12 [Formula 89]	60.1 (3) %	–
CC(C)C1CCC(N(C)Cc2nc(NCCCN(C)C)c3ccccc3n2)CC1 (stereo not shown) [Formula 100]	13.5 (3) %	–
COc1ccc(NC(=O)N2CCN(Cc3nc(NCCCN(C)C)c4ccccc4n3)CC2)cc1 [Formula 16]	38.0%	–
CN(C)CCCNc1nc(CN(C)C2CCCC(C(F)(F)F)C2)nc2ccccc12 (stereo not shown) [Formula 105]	57.7%	–
CN(CCc1ccccn1)c1nc(CN2CCN(C(c3ccc(Cl)cc3)c3ccc(Cl)cc3)CC2)nc2ccccc12 [Formula 45]	61.6%	–
CN(C)CCCNc1nc(CN2CCN(C(=O)Nc3ccc(C#N)cc3)CC2)nc2ccccc12 [Formula 40]	52.5%	–
Clc1ccc(C(c2ccc(Cl)cc2)N2CCN(Cc3nc(N4CCOCC4)c4ccccc4n3)CC2)cc1 [Formula 41]	63.1%	–
COC(=O)C1CCN(c2nc(CN3CCN(C(c4ccc(Cl)cc4)c4ccc(Cl)cc4)CC3)nc3ccccc23)CC1 [Formula 53]	62.7%	–
OC1CCN(c2nc(CN3CCN(C(c4ccc(Cl)cc4)c4ccc(Cl)cc4)CC3)nc3ccccc23)C1 (stereo not shown) [Formula 42]	70.0%	–
CN(C)CCCNc1nc(CN(C)C2C[C@@H]3CC[C@H]2C3)nc2ccccc12 (stereo partly shown) [Formula 98]	64.4%	–
CCOC(=O)[C@H](CCN(C)C)Nc1nc(CN2CCN(C(c3ccc(Cl)cc3)c3ccc(Cl)cc3)CC2)nc2ccccc12 [Formula 116]	47.7%	–
CC(C)CCN(C)Cc1nc(NCCCN(C)C)c2ccccc2n1 [Formula 61]	31.6 (3) %	–
CN(C)CCCNc1nc(CN(C)C2CCSC2)nc2ccccc12 (stereo not shown) [Formula 97]	45.0 (3) %	–
CC(CCN(C)Cc1nc(NCCCN(C)C)c2ccccc2n1)c1ccccc1 (stereo not shown) [Formula 79]	67.6%	–
OC1CCN(c2nc(CN3CCN(C(c4ccc(Cl)cc4)c4ccc(Cl)cc4)CC3)nc3ccccc23)CC1 [Formula 51]	61.6%	–
CN(C)CCC[C@H](Nc1nc(CN2CCN(C(c3ccc(Cl)cc3)c3ccc(Cl)cc3)CC2)nc2ccccc12)C(N)=O [Formula 118]	58.6%	–
COC(=O)[C@@H](Nc1nc(CN2CCN(C(=O)NC(c3ccccc3)c3ccccc3)CC2)nc2ccccc12)C(C)C [Formula 12]	45.6%	–
COc1ccc(Cl)cc1NC(=O)NCc1nc(N[C@H](C(N)=O)C(C)C)c2ccccc2n1 [Formula 60]	60.0%	–
CN(C)CCCNc1nc(CN(C)Cc2cccc(Cl)c2Cl)nc2ccccc12 [Formula 86]	61.1%	–
COC(=O)[C@@H](Nc1nc(CNC(=O)Nc2cccc(Br)c2)nc2ccccc12)C(C)C [Formula 58]	44.9%	–
CCC(C)(C)C1CCC(N2CCN(Cc3nc(NCCCN(C)C)c4ccccc4n3)CC2)C1 (stereo not shown) [Formula 38]	55.7%	–

SMILES	SPA ASSAY % Residual T @ 2 ug/mL of drug (Average of) [3]	also measured
CN(C)CCCC[C@H](Nc1nc(CN2CCN(C(c3ccc(Cl)cc3)c3ccc(Cl)cc3)CC2)nc2ccccc12)C(N)=O [Formula 119]	58.5%	–
CN(C)CCCNc1nc(CN(C)Cc2cccc3cc[nH]c23)nc2ccccc12 [Formula 77]	25.7%	–
Cc1c(CN(C)Cc2nc(NCCCN(C)C)c3ccccc3n2)sc2ccccc12 [Formula 88]	23.6 (3) %	–
CNCc1nc(NCCCN(C)C)c2ccccc2n1 [Formula 36]	42.6%	–
CN(C)CCCNc1nc(CN(C)Cc2ccc(C#Cc3ccccc3)cc2)nc2ccccc12 [Formula 92]	61.1%	–
CN(C)CCCNc1nc(CN2CCN(C(c3ccc(Cl)cc3)c3ccc(Cl)cc3)CC2)nc2ccccc12 [Formula 8]	16.1%	–
Clc1ccc(C(c2ccc(Cl)cc2)N2CCN(Cc3nc(N4CCc5ccccc5C4)c4ccccc4n3)CC2)cc1 [Formula 44]	83.9%	–
CCOC(=O)C1CC1CN(C)Cc1nc(NCCCN(C)C)c2ccccc2n1 (stereo not shown) [Formula 76]	57.8%	–
CN(C)CCCNc1nc(CN(C)C2CCC(C(F)(F)F)CC2)nc2ccccc12 (stereo not shown) [Formula 106]	52.8%	–
CN(C)CCCOc1nc(CN2CCN(C(c3ccc(Cl)cc3)c3ccc(Cl)cc3)CC2)nc2ccccc12 [Formula 37]	77.0%	–
O=c1[nH]c2ccccc2n1C1CCN(c2nc(CN3CCN(C(c4ccc(Cl)cc4)c4ccc(Cl)cc4)CC3)nc3ccccc23)CC1 [Formula 18]	47.9%	–
CN(C)CCCNc1nc(CN(C)Cc2ccco2)nc2ccccc12 [Formula 63]	52.7%	–
CN(C)CCCNc1nc(CN(C)C2CCC3(CC2)OCCO3)nc2ccccc12 [Formula 104]	23.0 (2) %	–
CN(C)CCCNc1nc(CN(C)Cc2ccc(C#N)cc2)nc2ccccc12 [Formula 70]	54.1%	–
O=C(C1CCCO1)N1CCN(c2nc(CN3CCN(C(c4ccc(Cl)cc4)c4ccc(Cl)cc4)CC3)nc3ccccc23)CC1 (stereo not shown) [Formula 48]	66.0%	–
COC(=O)[C@@H](Nc1nc(CNC(=O)Nc2cc(Cl)cc(Cl)c2)nc2ccccc12)C(C)C [Formula 56]	52.3%	–
CN(C)CCCNc1nc(CN(C)Cc2cccc(C#N)c2)nc2ccccc12 [Formula 69]	50.9%	–
CN(C)CCCNc1nc(CN(C)Cc2ccc(Oc3ccccc3)cc2)nc2ccccc12 [Formula 91]	54.0%	–
COc1ccc(/C=C/c2nc(NCCCN(C)C)c3ccccc3n2)cc1 [Formula 114]	61.3%	–
COC(=O)[C@@H](Nc1nc(CNC(=O)Nc2ccccc2C(F)(F)F)nc2ccccc12)C(C)C [Formula 54]	48.1%	–
CN(C)CCCNc1nc(CN(C)C2CCCCC2)nc2ccccc12 [Formula 96]	45.5 (3) %	–
CN(C)CCCNc1nc(CN(C)Cc2ccccc2C#N)nc2ccccc12 [Formula 68]	52.7%	–
COC(=O)[C@@H](Nc1nc(CNC(=O)Nc2ccc(Cl)c(Cl)c2)nc2ccccc12)C(C)C [Formula 55]	57.0%	–
CN(C)CCCNc1nc(CN(C)C2CCN(C(=O)c3ccccc3)CC2)nc2ccccc12 [Formula 110]	20.7 (2) %	–
